US20240390438A1, “PROBIOTICS SEPARATED FROM RABBIT FECES AND FOOD CONTAINING PROBIOTICS” (AGENT Innovation Co., Ltd., priority 2021, published 2024)
Converted amounts (≈) assume the structure as drawn. Read-outs that look alike come from different tables or passages of the source.

How the values were obtained:
L. plantarum 299 = conditions: from Klarin et al., 2019; cited from earlier work
L. plantarum 299v = conditions: from Klarin et al., 2019; cited from earlier work
Colony LP1 = test: Antibiotic susceptibility test; type: cell-based, Lactiplantibacillus Plantarum; conditions: for MIC: Lactiplantibacillus plantarum, LP1, 24 h; for Minimum inhibitory concentration of the antibiotic to LP1: 96-well, 37 C 24 h, OD600
Description: (§1) To test bacterial susceptibility to antibiotics, such as Aminoglycosides antibiotics, Sulfonamide antibiotics, Quinolone antibiotics, Ampicillin, Cefotaxime, Chloramphenicol, Erythromycin, Rifampicin and Tetracycline, the experimental protocol were as follow. Further, the Quinolone antibiotics comprise Ciprofloxacin, the Aminoglycosides antibiotics comprise Kanamycin and […], and the Sulfonamide antibiotics comprise Sulfamethoxazole. […] The initial absorbance at 600 nm (OD600) of each well was recorded. Then, the 96-well plates were placed at 37° C. and cultured for 24 hours. Next, the OD600 of each well was measured again to determine minimum inhibitory concentration.

Colony LP5 = test: Antibiotic susceptibility test; type: cell-based, Lactiplantibacillus Plantarum; conditions: for MIC: Lactiplantibacillus plantarum, LP5, 24 h; for Minimum inhibitory concentration of the antibiotic to LP5: 96-well, 37 C 24 h, OD600
Description: as §1

Colony LP19 = test: Antibiotic susceptibility test; type: cell-based, Lactiplantibacillus Plantarum; conditions: for MIC: Lactiplantibacillus plantarum, LP19, 24 h; for Minimum inhibitory concentration of the antibiotic to LP19: 96-well, 37 C 24 h, OD600
Description: as §1

Colony PTA22 = test: Antibiotic susceptibility test; type: cell-based, Lactiplantibacillus Plantarum; conditions: for MIC: Lactiplantibacillus plantarum, PTA22, 24 h; for Minimum inhibitory concentration of the antibiotic to PTA22: 96-well, 37 C 24 h, OD600
Description: as §1

Colony LP2 = test: Antibiotic susceptibility test; type: cell-based, Lactiplantibacillus Plantarum; conditions: for MIC: Lactiplantibacillus plantarum, LP2, 24 h, read-out: Minimum inhibitory concentration of the antibiotic to LP2
Description: as §1

L. pl 24-2L = conditions: from Georgieva et al., 2015; cited from earlier work
species L. plantarum = conditions: EFSA (2005); cited from earlier work
L. pl 24-5D = conditions: from Georgieva et al., 2015; cited from earlier work
Staphylococcus aureus = test: Minimum inhibitory concentration and minimum bacterial concentration; type: cell-based; conditions: antibiotics
Method: (§2) Minimum inhibitory concentration (MIC) refers to the minimum concentration at which the development of bacteria can be blocked and antibacterial resistance can be observed after cultured. The lower MIC means the better effect on bacteria.
(§3) The supernatants of the cultured colonies described above were collected, as cell-free solutions (CFSs), by centrifuge at 5000 rpm after cultured the colonies in a nutrient broth and shaking at 37° C. for 48 hours.
(§4) Next, 100 μL each of the CFSs and 100 μL bacterial solutions of the pathogenic bacteria were respectively added to each well of a 96-well plate. Thus, the total volume in each well was 200 μL. The tested pathogenic bacteria included Salmonella enterica, Shigella sonnei, Klebsiella pneumoniae, Streptococcus pneumoniae, Bacillus cereus, Staphylococcus aureus, Pseudomonas aeruginosa, and Escherichia coli.
(§5) As well, 100 μL each of the nutrient broth containing Ampicillin or Kanamycin and 100 μL bacterial solutions of the pathogenic bacteria were respectively added to each well of a 96-well plate. Thus, the total volume in each well was 200 μL.
(§6) Then, initial values of OD600 in each well were recorded. Subsequently, the 96-well plates were cultured at 37° C. for 24 hours, and the OD600 values thereof were re-recorded for determining the MICs of each colony described above.
(§7) Finally, 100 μL CFSs of the next three concentrations […] MIC were taken to be plated on nutrient agar and then cultured at 37° C. for 48-72 hours. The concentrations of the CFSs that no colonies grown on nutrient agar were determined to be the minimum bacterial concentration (MBCs).

Bacillus cereus = test: as above; type: cell-based; conditions: antibiotics
Method: as §2, §3, §4, §5, §6, §7

Pseudomonas aeruginosa = test: as above; type: cell-based; conditions: antibiotics
Method: as §2, §3, §4, §5, §6, §7

Klebsiella pneumoniae = test: as above; type: cell-based; conditions: antibiotics
Method: as §2, §3, §4, §5, §6, §7

Streptococcus pneumoniae = test: as above; type: cell-based; conditions: antibiotics
Method: as §2, §3, §4, §5, §6, §7

Shigella sonnei = test: as above; type: cell-based; conditions: antibiotics
Method: as §2, §3, §4, §5, §6, §7

Escherichia coli (ETEC) = test: as above; type: cell-based; conditions: antibiotics
Method: as §2, §3, §4, §5, §6, §7

[1] = read-out: Minimum inhibitory concentration of the antibiotic to LP1, 96-well, 37 C 24 h, OD600
[2] = read-out: Minimum inhibitory concentration of the antibiotic to LP5, 96-well, 37 C 24 h, OD600
[3] = read-out: Minimum inhibitory concentration of the antibiotic to LP19, 96-well, 37 C 24 h, OD600
[4] = read-out: Minimum inhibitory concentration of the antibiotic to PTA22, 96-well, 37 C 24 h, OD600
[5] = plated on nutrient agar 48-72 h

Structure (SMILES) | Minimum inhibitory concentration of the antibiotic to L. plantarum 299 (L. plantarum 299) [µg/mL] | Minimum inhibitory concentration of the antibiotic to L. plantarum 299v (L. plantarum 299v) [µg/mL] | MIC (Colony LP1; [1]) [µg/mL] | MIC (Colony LP5; [2]) [µg/mL] | MIC (Colony LP19; [3]) [µg/mL] | MIC (Colony PTA22; [4]) [µg/mL] | MIC (Colony LP2; 96-well, 37 C 24 h, OD600) [µg/mL] | also measured
CO/N=C(\C(=O)N[C@@H]1C(=O)N2C(C(=O)O)=C(COC(C)=O)CS[C@H]12)c1csc(N)n1 [Cefotaxime] | 0.094 | 0.094 | < 0.125 | < 0.125 | < 0.125 | < 0.125 | < 0.125 | 
O=C(N[C@H](CO)[C@H](O)c1ccc([N+](=O)[O-])cc1)C(Cl)Cl [Chloramphenicol] | 2 | 2 | 8 (≈ 24.8 µM) | 16 (≈ 49.5 µM) | 16 (≈ 49.5 µM) | 32 (≈ 99 µM) | 8 (≈ 24.8 µM) | Minimum inhibitory concentration of the antibiotic to L. pl 24-2L (L. pl 24-2L): 4 µg/mL; EFSA, MIC breakpoints species L. plantarum (species L. plantarum): 8 µg/mL; Minimum inhibitory concentration of the antibiotic to L. pl 24-5D (L. pl 24-5D): 6 µg/mL
O=C(O)c1cn(C2CC2)c2cc(N3CCNCC3)c(F)cc2c1=O [Ciprofloxacin] |  |  | > 128 | > 128 | > 128 | > 128 | > 128 | 
CCN1CCN(c2cc3c(cc2F)c(=O)c(C(=O)O)cn3C2CC2)CC1 [Enrofloxacin] |  |  | 64 (≈ 178 µM) | 64 (≈ 178 µM) | 64 (≈ 178 µM) | 64 (≈ 178 µM) | 64 (≈ 178 µM) | MIC (Staphylococcus aureus; 37 C 24 h, OD600): 1 µg/mL (≈ 2.78 µM); MBC (Staphylococcus aureus; [5]): 1 µg/mL (≈ 2.78 µM); MIC (Bacillus cereus; 37 C 24 h, OD600): 8 µg/mL (≈ 22.3 µM); MBC (Bacillus cereus; [5]): 8 µg/mL (≈ 22.3 µM); MIC (Pseudomonas aeruginosa; 37 C 24 h, OD600): 16 µg/mL (≈ 44.5 µM); MBC (Pseudomonas aeruginosa; [5]): 16 µg/mL (≈ 44.5 µM); MIC (Klebsiella pneumoniae; 37 C 24 h, OD600): 32 µg/mL (≈ 89 µM); MBC (Klebsiella pneumoniae; [5]): 32 µg/mL (≈ 89 µM); MIC (Streptococcus pneumoniae; 37 C 24 h, OD600): 0.25 µg/mL (≈ 0.696 µM); MBC (Streptococcus pneumoniae; [5]): 0.5 µg/mL (≈ 1.39 µM); MIC (Shigella sonnei; 37 C 24 h, OD600): < 0.125 µg/mL; MBC (Shigella sonnei; [5]): < 0.125 µg/mL; MIC (Escherichia coli (ETEC); 37 C 24 h, OD600): 4 µg/mL (≈ 11.1 µM); MBC (Escherichia coli (ETEC); [5]): 8 µg/mL (≈ 22.3 µM)
CO[C@H]1/C=C/O[C@@]2(C)Oc3c(C)c(O)c4c(O)c(c(/C=N/N5CCN(C)CC5)c(O)c4c3C2=O)NC(=O)/C(C)=C\C=C\[C@H](C)[C@H](O)[C@@H](C)[C@@H](O)[C@@H](C)[C@H](OC(C)=O)[C@@H]1C [Rifampicin] |  |  | 1 (≈ 1.22 µM) | 1 (≈ 1.22 µM) | 2 (≈ 2.43 µM) | 2 (≈ 2.43 µM) | 1 (≈ 1.22 µM) | 
Cc1cc(NS(=O)(=O)c2ccc(N)cc2)no1 [Sulfamethoxazole] |  |  | > 256 | > 256 | > 256 | > 256 | > 256 | Minimum inhibitory concentration of the antibiotic to LP1 (Colony LP1): >256 µg/mL; Minimum inhibitory concentration of the antibiotic to LP5 (Colony LP5): >256 µg/mL; Minimum inhibitory concentration of the antibiotic to LP19 (Colony LP19): >256 µg/mL; Minimum inhibitory concentration of the antibiotic to PTA22 (Colony PTA22): >256 µg/mL; Minimum inhibitory concentration of the antibiotic to LP2 (Colony LP2; 96-well, 37 C 24 h, OD600): >256 µg/mL
CN(C)[C@@H]1C(O)=C(C(N)=O)C(=O)[C@@]2(O)C(O)=C3C(=O)c4c(O)cccc4[C@@](C)(O)[C@H]3C[C@@H]12 [Tetracycline] |  |  | 32 (≈ 72 µM) | 32 (≈ 72 µM) | 32 (≈ 72 µM) | 64 (≈ 144 µM) | 32 (≈ 72 µM) | 
CN[C@H](CC(C)C)C(=O)N[C@H]1C(=O)N[C@@H](CC(N)=O)C(=O)N[C@H]2C(=O)N[C@H]3C(=O)N[C@H](C(=O)N[C@H](C(=O)O)c4cc(O)cc(O)c4-c4cc3ccc4O)[C@H](O)c3ccc(c(Cl)c3)Oc3cc2cc(c3O[C@@H]2O[C@H](CO)[C@@H](O)[C@H](O)[C@H]2O[C@H]2C[C@](C)(N)[C@H](O)[C@H](C)O2)Oc2ccc(cc2Cl)[C@H]1O [Vancomycin] | >256 | >256 |  |  |  |  |  | Minimum inhibitory concentration of the antibiotic to L. pl 24-2L (L. pl 24-2L): >256 µg/mL; Minimum inhibitory concentration of the antibiotic to L. pl 24-5D (L. pl 24-5D): >256 µg/mL; Minimum inhibitory concentration of the antibiotic to LP1 (Colony LP1): >256 µg/mL; MIC (Colony LP1; read-out: Minimum inhibitory concentration of the antibiotic to LP1): > 256 µg/mL; Minimum inhibitory concentration of the antibiotic to LP5 (Colony LP5): >256 µg/mL; MIC (Colony LP5; read-out: Minimum inhibitory concentration of the antibiotic to LP5): > 256 µg/mL; Minimum inhibitory concentration of the antibiotic to LP19 (Colony LP19): >256 µg/mL; MIC (Colony LP19; read-out: Minimum inhibitory concentration of the antibiotic to LP19): > 256 µg/mL; Minimum inhibitory concentration of the antibiotic to PTA22 (Colony PTA22): >256 µg/mL; MIC (Colony PTA22; read-out: Minimum inhibitory concentration of the antibiotic to PTA22): > 256 µg/mL; Minimum inhibitory concentration of the antibiotic to LP2 (Colony LP2; 96-well, 37 C 24 h, OD600): >256 µg/mL; MIC (Colony LP2): > 256 µg/mL
